Tests used:
[1] = tested on: LAM primary fibroblasts from Arom^hum mice; test: mRNA levels of P4/PGR-responsive and fibrotic genes in LAM primary fibroblasts; assay type: cell-based, mouse; conditions: for E2+R5020-stimulated expression of Col1a1 and Col12a1, blockade: pretreatment with 1 μM antagonist
WT mice = test: E2/P4-induced hernia formation in WT mice; assay type: in vivo, mouse; conditions: WT male mice, concurrent treatment with P4+E2
Excerpt: All placebo-treated Arom^hum mice developed hernias starting from 5 weeks of age. None of the WT littermates developed hernias. […] The mouse scrotum is connected to the peritoneal cavity with a narrow funicular (or inguinal) canal, with walls composed of LAM tissue. Structurally normal LAM tissue is essential to maintain the tone of this canal and prevent herniation of the bowel.
Experiment 1a1: Does the addition of P4 to E2 treatment accelerate LAM fibrosis and hernia formation in WT mice? It was shown that treatment of male WT mice with extremely high doses of systemic estrogens starting around or after the onset of puberty caused inguinal hernia in one third to half of these animals^23-25. We hypothesize that this effect is primarily mediated by the E2 induction of PGR expression in LAM fibroblasts. Male mice have readily detectable P4 levels in the circulation and LAM tissue to activate PGR in LAM fibroblasts (FIG. 6). If this were true, the addition of pharmacologic quantities of P4 (75 mg/pellet for 12-week release)^73 to E2 (0.3 mg/pellet for 12-week release)^23-25 in WT mice should accelerate this phenotype. Our ongoing preliminary study, whereby a 6-week treatment with P4+E2 induced large inguinal hernia in all WT mice (FIG. 7A), supports the following experiment. Long-term (8 weeks or longer) treatment with E2 only is anticipated to cause hernias in up to half of WT mice based on previous findings^23-25. We will determine whether P4+E2 treatment over 12 weeks will give rise to larger hernias in a higher number of mice compared with E2-only treatment. […] See Statistical Methods above for sample size calculation. Hernia surface area will be measured using a digital caliper and calculated as previously described (length×width)^19. At the designated endpoints, LAM and UAM (control) from each mouse will be resected, with one-half of the tissue snap-frozen in liquid nitrogen, and the other half fixed in 4% phosphate-buffered paraformaldehyde for histological and IHC analyses (see below). […]

[2] = molecular target: T1, glucocorticoid receptor (GR) (Homo sapiens, UniProt P04150); conditions: cited from earlier work
T1 sequence (P04150 1-777): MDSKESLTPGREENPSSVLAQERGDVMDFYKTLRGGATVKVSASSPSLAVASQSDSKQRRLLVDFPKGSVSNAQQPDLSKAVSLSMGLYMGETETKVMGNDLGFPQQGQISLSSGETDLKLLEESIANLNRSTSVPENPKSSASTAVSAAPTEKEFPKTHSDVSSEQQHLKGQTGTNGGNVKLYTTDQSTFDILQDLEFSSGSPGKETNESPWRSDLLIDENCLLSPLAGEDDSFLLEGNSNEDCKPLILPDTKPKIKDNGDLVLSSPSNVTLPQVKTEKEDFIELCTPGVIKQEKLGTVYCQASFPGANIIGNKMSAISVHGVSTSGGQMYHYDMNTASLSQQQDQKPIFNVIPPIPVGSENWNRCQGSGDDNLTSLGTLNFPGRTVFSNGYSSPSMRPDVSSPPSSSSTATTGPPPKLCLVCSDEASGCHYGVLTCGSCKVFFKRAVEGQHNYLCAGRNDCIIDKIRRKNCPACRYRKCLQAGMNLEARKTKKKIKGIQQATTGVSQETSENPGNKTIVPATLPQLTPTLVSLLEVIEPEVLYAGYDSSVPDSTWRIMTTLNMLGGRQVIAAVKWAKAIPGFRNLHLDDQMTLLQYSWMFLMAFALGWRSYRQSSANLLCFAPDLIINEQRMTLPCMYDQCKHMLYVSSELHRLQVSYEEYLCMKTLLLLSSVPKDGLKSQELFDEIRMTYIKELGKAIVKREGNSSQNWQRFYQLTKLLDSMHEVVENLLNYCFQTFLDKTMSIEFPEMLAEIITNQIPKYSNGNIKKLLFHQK

PGR = molecular target: T2, PGR (Homo sapiens, UniProt P06401); conditions: cited from earlier work
T2 sequence (P06401 1-933): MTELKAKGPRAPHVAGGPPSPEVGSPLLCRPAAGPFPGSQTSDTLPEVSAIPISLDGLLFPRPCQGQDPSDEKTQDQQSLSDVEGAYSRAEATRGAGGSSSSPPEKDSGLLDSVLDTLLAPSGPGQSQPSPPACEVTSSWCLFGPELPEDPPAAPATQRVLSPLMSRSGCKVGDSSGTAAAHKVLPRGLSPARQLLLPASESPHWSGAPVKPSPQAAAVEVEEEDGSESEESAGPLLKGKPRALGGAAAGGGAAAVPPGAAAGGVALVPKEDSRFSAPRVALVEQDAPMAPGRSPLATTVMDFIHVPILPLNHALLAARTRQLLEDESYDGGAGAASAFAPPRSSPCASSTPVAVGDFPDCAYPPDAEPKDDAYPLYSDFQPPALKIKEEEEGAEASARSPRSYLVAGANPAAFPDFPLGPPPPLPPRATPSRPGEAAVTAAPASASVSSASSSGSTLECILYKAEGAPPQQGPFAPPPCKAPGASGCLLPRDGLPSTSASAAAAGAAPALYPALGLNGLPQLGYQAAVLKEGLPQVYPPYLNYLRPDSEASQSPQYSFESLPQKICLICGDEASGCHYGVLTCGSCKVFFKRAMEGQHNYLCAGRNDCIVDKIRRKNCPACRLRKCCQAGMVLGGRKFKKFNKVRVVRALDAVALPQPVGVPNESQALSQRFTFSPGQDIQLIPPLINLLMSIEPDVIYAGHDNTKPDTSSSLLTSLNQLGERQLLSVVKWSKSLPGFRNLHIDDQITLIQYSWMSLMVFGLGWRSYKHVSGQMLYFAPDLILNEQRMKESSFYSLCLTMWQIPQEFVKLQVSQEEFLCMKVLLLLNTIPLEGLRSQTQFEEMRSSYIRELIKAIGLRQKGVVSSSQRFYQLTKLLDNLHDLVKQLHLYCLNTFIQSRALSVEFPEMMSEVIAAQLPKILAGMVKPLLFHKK

| SMILES | E2+R5020-stimulated expression of Col1a1 and Col12a1, blockade [1] | prevention of P4+E2-induced large hernias (WT mice) | anti-glucocorticoid activity [2] | P4/PGR antagonism and PGR selectivity (PGR) | E2+R5020-induced expression of P4/PGR-responsive (Greb1, Cyp7b1) and fibrotic genes (Adamtsl1, Col1a1, Col14a1) ([1]; 1 μM antagonist, pretreated 2 h before E2 (10 nM)+R5020 (100 nM)) |
| --- | --- | --- | --- | --- | --- |
| CC#C[C@]1(O)CC[C@H]2[C@@H]3CCC4=CC(=O)CCC4=C3[C@@H](c3ccc(N(C)C)cc3)C[C@@]21C [RU486, Mifepristone] | blocked | completely prevented | has anti-glucocorticoid effects | – | – |
| CC(=O)O[C@]1(C(C)=O)CC[C@H]2[C@@H]3CCC4=CC(=O)CCC4=C3[C@@H](c3ccc(N(C)C)cc3)C[C@@]21C [UPA, Ulipristal acetate] | blocked | – | extremely low anti-glucocorticoid activity | very high PGR selectivity | significantly decreased |

From patent US20250186461A1, “METHODS AND COMPOSITIONS FOR TREATING AND/OR PREVENTING HERNIAS” (Northwestern University, priority 2023, published 2025)
